The record followed here is patent US20170027854A1, “Methods And Compositions For Improving The Appearance Of Skin” (ELC Management LLC, priority 2015, published 2017).

Ends that are not written are not given here.

The test system of the experiment is SIRT6. Briefly: SIRT6 expression in normal human epidermal keratinocytes by immunohistochemistry. In kind it is cell-based. The following applies: 1% and 3% of a 50 ppm peptide solution, FIG. 2. On the procedure:
SIRT6 is a member of the conserved family of sirtuin proteins which are associated with metabolism and longevity. SIRT6 is a histone 3, lysine 9 (H3K9) deacetylase and is primarily involved in DNA repair and telomere stability. The peptide of (SEQ ID No. 5) Gly-Ala-Gly-Val-Ser-Ala-Glu-NH2 was tested for Sirt6 stimulating activity as follows.
Normal Human Epidermal Keratinocytes p3
• 1. Cells were plated into 4 well chamber slides @ 10,000 cells/chamber and incubated at 37° C., 5% CO2 & 95% humidity for 24 hours. • 2. The peptide of SEQ ID No. 5 was prepared as follows: • 2.1. Dissolved 5 mg peptide in 5 ml medium to make a 1000 ppm stock solution. • 2.2. Diluted the stock solution to 50 ppm by combining 400 μl 1000 ppm stock solution with 7.6 ml medium • 2.3. Prepared a 3% of the 50 ppm solution by combining 1.5 ml 50 ppm stock with 48.5 ml medium • 2.4. Prepared a 1% of the 50 ppm solution by combining 0.5 ml 50 ppm stock with […] medium • 3. Placed treatments (500 μl per chamber) on cells for 48 h, refreshing treatments after 24 h • 4. Aspirated media and replaced with the appropriate treatments. Incubated for 1 & 6 hours. • 5. Performed immunohistochemistry on the cells
• 6. Prepared Wash Buffer (0.2% Triton X-100):
6.1. Add 1 mL of Triton X-100 to 499 ml of 1×PBS • 7. Prepared Block Solution (1%/10 mg/ml BSA)
7.1. Added 5 g of BSA into a final volume of 500 ml of 1×PBS • 8. […]

As to “Gly-Ala-Gly-Val-Ser-Ala-Glu-NH2 (GAGVSAE-NH2) [SEQ ID No. 5]”, the SIRT6 expression result was “dose dependent increase in SIRT6 expression”.
